Experimental data as given in ChEMBL document CHEMBL4033758, “Systematic Data Mining Reveals Synergistic H3R/MCHR1 Ligands” (ACS Med Chem Lett, 2017).

The compounds below were run against Histamine H3 receptor (Homo sapiens, UniProt Q9Y5N1) (assay: Displacement of [3H]-N-alpha-methylhistamine from human H3R expressed in HEK293 cell membranes after 90 mins by liquid scintillation counting analysis).
Histamine H3 receptor, sequence (Q9Y5N1 whole entry): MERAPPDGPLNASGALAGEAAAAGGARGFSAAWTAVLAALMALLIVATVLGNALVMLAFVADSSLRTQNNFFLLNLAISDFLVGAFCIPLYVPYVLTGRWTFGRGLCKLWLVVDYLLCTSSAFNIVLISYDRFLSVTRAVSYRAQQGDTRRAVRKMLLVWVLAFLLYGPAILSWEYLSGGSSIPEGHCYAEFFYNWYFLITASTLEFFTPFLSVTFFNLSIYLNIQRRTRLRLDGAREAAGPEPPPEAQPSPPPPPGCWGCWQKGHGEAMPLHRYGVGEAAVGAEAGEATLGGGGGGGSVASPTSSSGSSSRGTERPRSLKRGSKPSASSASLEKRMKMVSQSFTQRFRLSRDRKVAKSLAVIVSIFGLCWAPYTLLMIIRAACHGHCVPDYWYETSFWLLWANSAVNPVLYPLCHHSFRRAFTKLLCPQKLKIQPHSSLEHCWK

| Ki [nM] | SMILES |
| --- | --- |
| 10.6 | CCN1CCN(c2cc(C)c3cc(NC(=O)/C=C/c4ccc(OC)cc4)ccc3n2)CC1 |
| 208 | COc1cc(-n2cnc3cc(-c4ccc(Cl)cc4)sc3c2=O)ccc1OCCN1CCCC1 |
| 517 | O=c1cc(OCc2ccc(F)cc2)ccn1-c1ccc(OCCN2CCCC2)cc1 |
